The results in this text go back to ChEMBL document CHEMBL5230131, “Modern trends in diuretics development” (Eur J Med Chem, 2020).

pEC50, pIC50: −log10 of the molar value.

Usually pEC50 stands for the negative decadic logarithm of the EC50, by convention in mol/L. A word on the pIC50: it is −log10 of the IC50, conventionally taken in molar units.

One experiment concerns the target T1, Aquaporin-1 (Homo sapiens, UniProt P29972).
T1 sequence (P29972 whole entry): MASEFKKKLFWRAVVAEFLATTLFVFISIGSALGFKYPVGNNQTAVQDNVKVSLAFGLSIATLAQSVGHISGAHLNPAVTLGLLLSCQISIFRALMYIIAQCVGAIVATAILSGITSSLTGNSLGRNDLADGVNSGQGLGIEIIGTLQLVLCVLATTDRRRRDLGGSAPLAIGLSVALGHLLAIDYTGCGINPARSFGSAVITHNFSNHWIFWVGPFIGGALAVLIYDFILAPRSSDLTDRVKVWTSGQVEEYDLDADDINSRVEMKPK
Description: Agonist activity at human AQP1 water channel expressed in Xenopus laevis oocytes assessed as inhibition of AQP1-mediated osmotic swelling. The experiment is classed as cell-based, Oocyte.

Experiment [1] concerns the target T2, Pendrin (Mus musculus, UniProt Q9R155).
T2 sequence (Q9R155 whole entry): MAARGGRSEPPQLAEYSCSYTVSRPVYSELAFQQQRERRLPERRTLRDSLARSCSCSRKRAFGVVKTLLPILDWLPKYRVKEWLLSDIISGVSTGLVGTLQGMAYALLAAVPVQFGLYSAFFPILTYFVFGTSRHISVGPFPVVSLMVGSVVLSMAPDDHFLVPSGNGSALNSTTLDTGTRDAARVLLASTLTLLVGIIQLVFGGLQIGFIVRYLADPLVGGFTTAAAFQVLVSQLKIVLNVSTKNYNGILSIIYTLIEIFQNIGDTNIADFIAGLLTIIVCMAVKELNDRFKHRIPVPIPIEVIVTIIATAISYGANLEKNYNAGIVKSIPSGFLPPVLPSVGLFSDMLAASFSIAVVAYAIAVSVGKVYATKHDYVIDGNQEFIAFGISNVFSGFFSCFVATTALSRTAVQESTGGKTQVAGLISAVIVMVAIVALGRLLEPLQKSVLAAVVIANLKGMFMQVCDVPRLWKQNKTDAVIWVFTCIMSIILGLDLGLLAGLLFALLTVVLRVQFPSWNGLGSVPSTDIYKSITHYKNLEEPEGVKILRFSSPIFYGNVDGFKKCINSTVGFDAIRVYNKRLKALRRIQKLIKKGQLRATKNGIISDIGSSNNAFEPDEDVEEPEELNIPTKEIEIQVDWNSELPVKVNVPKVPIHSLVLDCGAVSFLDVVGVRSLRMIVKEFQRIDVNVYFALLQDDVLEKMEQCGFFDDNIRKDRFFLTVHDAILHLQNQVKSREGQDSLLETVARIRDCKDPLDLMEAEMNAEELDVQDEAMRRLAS
The experiment can be described thus: Inhibition of mouse Pendrin stably expressed in FRT cells with YFP assessed as inhibition of pendrin mediated Cl-/NO3- exchange by fluorescence assay. The experiment is classed as cell-based.

Experiment [2] has as its target T2, Pendrin. Description: Inhibition of mouse Pendrin stably expressed in FRT cells with YFP assessed as inhibition of pendrin mediated Cl-/SCN- exchange by fluorescence assay. The experiment is classed as cell-based.
In experiment [3] the test system is Mus musculus. The experiment can be described thus: Diuretic activity in C57BL/6 mouse assessed as increase in urine volume at 20 mg/kg,ip with long term administration of furosemide measured after 3 hrs. The experiment is classed as functional.
Experiment [4] relates to Mus musculus. Description: Diuretic activity in CD-1 mouse assessed as increase in urine volume at 20 mg/kg,ip with long term administration of furosemide measured after 3 hrs. The experiment is classed as functional.
Experiment [5] has as its target T2, Pendrin. The experiment can be described thus: Inhibition of mouse Pendrin stably expressed in FRT cells with YFP assessed as inhibition of pendrin mediated Cl-/HCO3- exchange by fluorescence assay. The experiment is classed as cell-based.
In experiment [6] the test system is Mus musculus. The experiment can be described thus: Diuretic activity in CD-1 mouse assessed as increase in urine volume at 10 to 50 mg/kg,ip with short term administration of furosemide measured after 3 hrs. As to conditions: dose 10-50 mg/kg. The experiment is classed as functional.
Experiment [7] relates to Mus musculus. Description: Diuretic activity in C57BL/6 mouse assessed as increase in urine volume at 10 to 50 mg/kg,ip with short term administration of furosemide measured after 3 hrs. As to conditions: dose 10-50 mg/kg. The experiment is classed as functional.

In the case of `COC(=O)c1cc(S(=O)(=O)NCc2ccccc2)c(Cl)cc1NCc1ccco1`, on Aquaporin-1, the pEC50 was 5.48.

In the case of `Cc1n[nH]c(-c2cc(S(=O)(=O)NC3CCCc4ccccc43)c(C)s2)c1C` (stereo not drawn), the pIC50 on Pendrin [1] is 5.30; on Pendrin [2], 5.05; at Pendrin [5], 5.00. The Activity in the experiment with Mus musculus [3] turned out to be 60%; in the experiment on Mus musculus [4], 60%; in the experiment with Mus musculus [6], 30%; with Mus musculus [7], 30%.
